# Laboratory results from PMC7391726, “Fatty acid mimetic PBI-4547 restores metabolic homeostasis via GPR84 in mice with non-alcoholic fatty liver disease” (Scientific Reports, 2020).
# Test system: HFD-fed WT mice
# Experiment: High-fat diet (HFD) mouse model of obesity/NAFLD, WT mice
# Type: in vivo
# Excerpt: The well-established high-fat diet (HFD) mouse model of obesity was used to study the impact of PBI-4547 on the onset and progression of NAFLD. A 14-week HFD regimen led to significant weight gain in both male and female mice. […] Moreover, PBI-4547 decreased serum triglycerides while enhancing adiponectin levels. […] Of note, the effects of PBI-4547 on bodyweight, food consumption, glucose tolerance, fasting blood glucose, insulin resistance and HOMA-β indices were absent in standard diet-fed mice (Table S1).
# Total cholesterol levels were measured using the HDL/LDL/VLDL Cholesterol Assay kit (Abcam) according to manufacturer’s protocol. […] Liver triglycerides were extracted using a modified version of the Folch protocol[49]^, then quantified using a triglyceride colorimetric kit (Cayman Chemical).
# WT or Gpr84^−/− mice, as previously described, (aged 10–14 weeks at the beginning of the experiment) were either fed a standard diet (STD) or a high-fat diet (HFD) (Envigo #TD.06414) for 14 weeks. At this point, mice were administered either vehicle (water) or PBI-4547 (10 mg/kg) on a daily basis for 6 (WT study) or 8 (WT vs KO study) weeks by gastric gavage, and were sacrificed thereafter. Liver and WAT tissues were fixed in 10% formalin for histological analyses or flash frozen in liquid nitrogen for RT-PCR analyses. All animal studies were reviewed and approved by the animal care and use committee of the Institut National de la Recherche Scientifique – Armand-Frappier (Laval, QC, Canada) and the University of Ottawa’s Animal Care and Veterinary Services (Ottawa, ON, Canada). Protocols were approved and undertaken according to the Canadian Council on Animal Care guidelines.
# Oral glucose tolerance tests (OGTT) were completed 6 weeks after beginning of the treatments. Briefly, mice were fasted for 4–6 h, given a bolus of glucose at […] BW orally, and blood glucose values measured at 0, 15, 30, 60, 120 min. In parallel, a blood sample was obtained at 0, 15, 60 and 120 min for insulin quantification by ELISA (EMD Millipore).
# After fixation in formalin, iWAT (inguinal), eWAT (epididymal) and liver sections were embedded in paraffin. Thin section of […] were stained with Hematoxylin and Eosin or Sirius red for analyses. WAT collagen deposition and liver characteristics of NAFLD were quantified histologically by a pathologist (R.C.) in a double-blinded manner. Liver histology was performed on H&E stained slides. WAT collagen deposition was scored using Picro Sirius-Red stained slides. Immunofluorescence-detection of α-SMA in liver sections was performed. Briefly, samples were deparaffinized in a series of xylenes, rehydrated in graded alcohols followed by an antigen-unmasking step by microwaving in Tris-buffer (pH 8.2). Sections were blocked with 10% donkey serum (Vector labs), 1% bovine serum albumin (Sigma) in PBS + 1%Tween for 1 h at room temperature. Slides were incubated overnight at 4 °C with an anti-mouse smooth muscle α-Actin antibody (1:300; Santa Cruz, clone #1A4). Secondary detection was performed using a donkey anti-mouse Alexa Fluor 594 (1:500; Molecular Probes), incubated for 1 h at room temperature. Slides were dehydrated and mounted with fluorescent antifade media containing DAPI (Vector labs). Images were taken at 100X and 200X magnification and representative images are shown.
# RNA was extracted and purified as previously described. Real-time quantitative PCR was performed on a CFX96 Touch Real-Time PCR Detection System (Bio-Rad) using TaqMan gene expression assays (Fisher Scientific). qPCR data were analyzed using the 2-^ΔΔCt method, using Gapdh and Hprt as endogenous control. RT-qPCR data were reported as Geometric means ± SEM.
# A portion of hepatic tissue (50 mg) was mechanically homogenized in 1 mL H2O/CH3CN (1/1) using a PowerGen 125 homogenizer (Fisher Scientific). The homogenates were centrifuged for 10 min at 5,000×g at 4 °C. Hydrophilic metabolites were lyophilized to remove water for NMR experiments. […]
# [1] = HFD mice, 1H-NMR liver metabolomics
structure (smiles),measurement,setting,value
"CCCCCc1cc(CCCCC)cc(CC(=O)[O-])c1.[Na+] [PBI-4547, 2-[3,5-dipentylphenyl]acetate sodium salt]",HOMA-IR index,"HFD mice, 10 mg/kg daily",decreased by PBI-4547 to the STD group level
same,degree of hepatic inflammation (histology),"HFD mice, 10 mg/kg daily",remained unchanged
same,disposition index,"HFD mice, 10 mg/kg daily",remained unchanged
same,fasting insulin levels,"HFD mice, 10 mg/kg daily",lowered
same,hepatic ballooning (histology),"HFD mice, 10 mg/kg daily",markedly reduced
same,hepatic steatosis (histology),"HFD mice, 10 mg/kg daily",markedly reduced
same,liver total cholesterol,"HFD mice, 10 mg/kg daily",without affecting
same,liver triglyceride levels,"HFD mice, 10 mg/kg daily",reduced
same,oral glucose tolerance test (OGTT),"HFD mice, 10 mg/kg daily",better glycemic control
same,overall NAFLD score,"HFD mice, 10 mg/kg daily",significantly improving
same,serum adiponectin levels,"HFD mice, 10 mg/kg daily",enhancing
same,serum triglycerides,"HFD mice, 10 mg/kg daily",decreased
same,organ weight,"HFD mice, 10 mg/kg daily by gavage",without affecting
same,bodyweight,"HFD mice, 10 mg/kg daily by gavage, 5 weeks after beginning of treatment",significant reduction
same,fasting blood glucose,"HFD mice, 10 mg/kg daily, after 6 weeks of treatment",decreased
same,hepatic dysregulation of key amino acids and citric acid cycle intermediates (metabolomics),[1],corrected
same,hepatic energy metabolism intermediates (metabolomics),[1],restored back to normal levels
same,maximum diameter or average size of adipocytes,"HFD mice, WAT morphometric analysis",did not affect
same,WAT expression of Pgc1a and Ucp1,"HFD mice, WAT qRT-PCR",induced
same,"WAT expression of resistin and glucose transporters Slc2a2, Slc2a4","HFD mice, WAT qRT-PCR",increased
same,WAT expression of vaspin (Serpina12),"HFD mice, WAT qRT-PCR",completely abolished
same,"WAT mRNA of pro-fibrotic (Cola1, Ctgf, Mmp2, Timp1) and pro-inflammatory (Il6, Ccl2) genes","HFD mice, WAT qRT-PCR",downregulated
same,NAD+ in liver,"HFD mice, liver metabolomics",restored high levels
same,hepatic Ucp2 and Ucp3 expression,"HFD mice, qRT-PCR",highly upregulated
same,"hepatic expression of FA metabolism genes Acox1, Cpt1b, Pdk4, Hadha, Cd36","HFD mice, qRT-PCR",strong upregulation
same,"hepatic expression of glucose metabolism genes Pklr, G6pc, Slc2a2","HFD mice, qRT-PCR",normalized
same,liver Adipor2 expression,"HFD mice, qRT-PCR",downregulated
same,liver Ctgf mRNA levels,"HFD mice, qRT-PCR",significantly decreased
same,liver Mmp2 mRNA levels,"HFD mice, qRT-PCR",significantly decreased
same,liver Retn (resistin) expression,"HFD mice, qRT-PCR",restored to normal levels
same,liver Serpina12 (vaspin) expression,"HFD mice, qRT-PCR",downregulated
same,liver pro-inflammatory genes,"HFD mice, qRT-PCR",not modulated
same,WAT extent of interstitial fibrosis,"HFD mice, white adipose tissue",decreased
same,WAT immune cell infiltration,"HFD mice, white adipose tissue",decreased
same,serum total cholesterol,"HFD mice, after four weeks of treatment",returned to similar level as in the HFD group
same,serum total cholesterol,"HFD mice, after two weeks of treatment",slightly increased
same,HOMA-IR index,"WT vs KO study, HFD-fed WT",reduced
same,WAT mean adipocyte diameters and area,"WT vs KO study, HFD-fed WT",remained unchanged
same,fasting blood glucose levels,"WT vs KO study, HFD-fed WT",downregulated
same,insulin levels,"WT vs KO study, HFD-fed WT",reduced
same,liver glycogen levels,"WT vs KO study, HFD-fed WT",increased
same,serum adiponectin,"WT vs KO study, HFD-fed WT",upregulated
same,serum cholesterol levels,"WT vs KO study, HFD-fed WT",remained unchanged
same,serum triglyceride levels,"WT vs KO study, HFD-fed WT",lowered
same,α-SMA positive liver staining (immunofluorescence),"WT vs KO study, HFD-fed WT",dramatic drop
same,bodyweight,"WT vs KO study, HFD-fed WT, 10 mg/kg daily, 8 weeks",decreased
same,OGTT,"WT vs KO study, HFD-fed WT, after 6 weeks",significant effect
same,AMPK phosphorylation levels in the liver,data not shown,promote
